One experiment concerns rumen cellulase activity. Kind of experiment: In vitro cellulose degradation by rumen bacterial inoculum. Type of experiment: biochemical, cows. To be noted: 0.25% surfactant in reaction mixture; regression on initial 24 hr. The method, then:
A bacterial fraction, largely free of protozoa, was prepared for the fermentation assays by using the procedure of Forsberg, “Some Effects of Arsenic on the Rumen Microflora; An In Vitro Study,” Can. J. Microbiol. 24:36 (1978). The digesta inoculum was resuspended and washed twice in an equivalent amount of 0.1 M phosphate buffer pH 6.8 to the rumen fluid. The inoculum provided both, the substrate and the enzyme used for cellulose degradation assay. Incubation periods were 0, 1.5, 3, 6, 12, 24, and 48 hr. Other incubation conditions were similar to those outlined in experiment 1 above. However, cellulose was determined by the method of Updergraff, supra, for the in vivo digestibility trial. The optimal level of Tween 80 obtained was adopted here and followed.

For the next experiment, the system named is dairy cows. Kind of experiment: Two levels of Tween 80, milk production and feed intake in cows under heat stress (Example 5). To be noted: for Drop in milk production: week 11 (heat stress). Type of experiment: in vivo, Holstein. The text has this: Seventy-five dairy cows of the Holstein breed were ranked according to lactation number, days in milk and production level and placed into three equal groups. Treatments were then randomly assigned to individual animals within the groups. There were 25 animals in each dietary treatment group. Cows were offered ad libitum access to a total mixed ration (TMR) based on grass silage, corn silage, grass hay and a commercial dairy concentrate. The treatments consisted of:
Treatment 1—Control diet (TMR).
Treatment 2—TMR containing 0.2% (w/w) Tween 80, and
Treatment 3—TMR containing 0.3% (w/w) Tween 80.
The experiment lasted 12 weeks. All cows were fed the control diet during the first week. This period served as a pretrial week. Cows in each treatment group were then fed their experimental diets for ten weeks. Milk production and feed intake were, monitored from the first week (pretrial) until the 12th week (one week after the experimental diets were withdrawn).
Ambient temperatures exceeded 40° C. during weeks 10 and 11 of the experiment resulting in considerable heat stress in the cows. Milk production and feed intake data are discussed in the light of the heat stress.

Another experiment has as its system Red Angus steers. Kind of experiment: Performance of feedlot cattle, 119 days (Example 6). Type of experiment: in vivo. The method, then:
Three hundred and twenty six Red Angus steers were stratified by weight and divided into eight pens. The pens were then randomly assigned to one of the following four dietary treatments:
3) 0.2% (wt/wt) glycanase enzyme (enzyme)
The enzyme is marketed by GNC Bioferm Inc., Saskatoon, SK. The product contained the following activities (expressed as nmol of reducing sugars released from 1 mg of product per min: xylanase (336.6), β-glucanase (196.0), carboxymethylcellulase (44.4), and amylase (46.3). The basal diet was a total mixed ration consisting of rolled barley, corn silage and canola meal. Tween 80 was diluted with tap water (1 in 5) before it was applied. The total amount of feed required each day for the animals on each treatment was weighed separately in a mixer wagon and the appropriate quantity of Tween 80, enzyme, or their combination applied to it and mixed for ten minutes before feeding. An equal volume of water as applied to the Tween 80 treatment was also applied to the control and enzyme treatment to make the moisture content of the four experimental diets equal. The experimental diets were fed for a total of 119 days. Individual body weights were taken at the beginning and end of the experiment. Group body weights were taken at monthly intervals.

A short description of experiment [1]: In vitro true digestibility (IVTD) of orchardgrass hay, Ankom in vitro system, 22 h. The method, then:
The carriers were celite (Fisher Scientific Co. New Jersey, USA), diatomaceous earth (Sigma Chemical Co. St. Louis, Mo.) and LuctaCarrier (Lucta, S. A. Barcelona, Spain). Tween 80 was mixed with the carriers such that the resulting mixture contained 50% Tween 80 (wt/wt). The ability of Tween 80 in these mixtures to improve digestive efficiency was evaluated in vitro with orchardgrass hay that had been ground to pass through a 1 mm screen. Treatments included 0 (control), 0.1 and 0.2% liquid Tween 80, 0.1 and 0.2% Tween 80 in diatomaceous earth, 0.1 and 0.2% Tween 80 in celite, and 0.1 and 0.2% Tween 80 in LuctaCarrier. Appropriate quantities of each substrate were mixed with the additives and incubated in the Ankom in vitro system (Ankom Technology Fairport NY) for 22 h.

[2] abbreviates: first calf heifers, 0.2% Tween 80, second week of heat stress.

In the case of “polyoxyethylene sorbitan monoleate [Tween 80]”, in the experiment with rumen cellulase activity, the “Initial rate of cellulose degradation” value was 1.04c (0.32) μg/ml/hr. The Weight gain in the experiment on dairy cows (0.2% Tween 80, first 30 d) is given as 1 kg; in the experiment on dairy cows (0.2% Tween 80, last 60 days) it was 9 kg; in the experiment on dairy cows (0.3% Tween 80, first 30 d), 2.5 kg; with dairy cows (0.3% Tween 80, last 60 days), 4.5 kg. Besides, the “Depression in dry matter intake” value with dairy cows (0.2% Tween 80, first week of heat stress) is 3.4%; with dairy cows (0.2% Tween 80, second week of heat stress) it was 14.4%; in the experiment with dairy cows (0.3% Tween 80, first week of heat stress), 6.0%; with dairy cows (0.3% Tween 80, second week of heat stress), 12.6%. The figures for the “Drop in milk production” value in the experiment with dairy cows (0.2% Tween 80) and in the experiment with dairy cows (0.3% Tween 80) were 23.6% and 22%, respectively. In the experiment with dairy cows (Tween 80 treatments (0.2 and 0.3%), first week of heat stress (week 10)), the “Fall in milk production” value is reported as “about 11%”. The “More milk than control, on average” value in the experiment on dairy cows (first calf heifers, 0.2% Tween 80) is reported as 2 kg/day; with dairy cows (mature cows, 0.2% Tween 80) it was 3.54 kg/day; with dairy cows (mature cows, 0.3% Tween 80) it was 3.98 kg/day. Further, the “Increase in milk over control” value in the experiment with dairy cows (setting [2]) came to 13.6%. Also, the “More milk than control” value in the experiment on dairy cows (setting [2]) was “more than 3.6 kg/day”. In addition, in the experiment on Red Angus steers (0.1% Tween 80), the “Average Daily Gain” value is reported as 1.69a kg/d. In the experiment on Red Angus steers (0.1% Tween 80), the “Average daily gain higher than control” value stood at 6.3%. Moreover, the “Feed Efficiency (Gain/Feed)” value in the experiment with Red Angus steers (0.1% Tween 80) is reported as 0.166. For the same substance, the “More weight gained than animals on the control diet” value in the experiment with Red Angus steers (0.1% Tween 80) is given as “approximately 5.8%”. In addition, the “Total Weight Gain” value in the experiment on Red Angus steers (0.1% Tween 80 (dry matter basis)) was determined as 219.03a kg. For the same substance, the “In vitro true digestibility (IVTD)” value in experiment [1] (0.1% Tween 80) was 54.20%; in experiment [1] (0.2% Tween 80) it was 54.93%.

The record behind these values is patent US20040076659A1, “Additive for livestock feeds” (priority 1994, published 2004).
